This is an account of results in patent publication US7452908B2, “Amide derivatives” (Banyu Pharmaceutical Co., Ltd., priority 1999, dated 2008).

Experiment [1] has as its target T1, M2 receptor in isolated rat right atrium (Rattus norvegicus, UniProt P10980).
T1 construct: from tissue; host or cells: right atrium of male SD rats
T1 sequence (P10980 1-466): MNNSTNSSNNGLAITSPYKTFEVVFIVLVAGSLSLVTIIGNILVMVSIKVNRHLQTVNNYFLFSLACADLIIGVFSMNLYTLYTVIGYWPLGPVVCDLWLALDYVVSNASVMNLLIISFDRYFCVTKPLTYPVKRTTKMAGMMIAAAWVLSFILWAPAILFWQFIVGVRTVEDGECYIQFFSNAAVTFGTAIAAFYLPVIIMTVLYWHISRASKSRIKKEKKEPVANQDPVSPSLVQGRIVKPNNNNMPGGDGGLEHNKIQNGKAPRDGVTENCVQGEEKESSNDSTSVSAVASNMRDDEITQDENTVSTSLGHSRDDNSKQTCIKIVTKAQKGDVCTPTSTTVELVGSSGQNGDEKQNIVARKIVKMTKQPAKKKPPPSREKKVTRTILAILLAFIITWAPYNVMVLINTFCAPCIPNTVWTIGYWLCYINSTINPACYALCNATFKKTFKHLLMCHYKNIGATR
Put plainly: Antagonism to M2 receptor in isolated rat right atrium (carbachol-induced decrease in heart rate). The format is cell-based. To be noted: shift of carbachol dose-response curve. The protocol: The test was performed according to a conventional method. Male SD strain rats (weighing 300-500 g) were killed by exsanguination, and from each of them the right atrium was isolated. Each preparation was isometrically suspended in a Magnus tube filled with 20 ml of Krebs-Henseleit solution (gassed with 95% O2-5% CO2 and kept at 32° C.) with an initial tension of 0.5 g. The heart rate was recorded with a heart rate counter. After the preparation was equilibrated for 30 minutes, carbachol (10^−9 to 10^−6 M) was cumulatively administered from a low concentration to three-fold increasing doses and accompanying decrease in heart rate was measured to obtain a dose-responsecurve for the control experiment. Afterthe preparation was washed with fresh solution to restore the heart rate, a test compound was administered thereto. Ten minutes later, carbachol was cumulatively administered again. Responses to carbachol were expressed as percentages based on the heart rate before administration of carbachol as 100%. The antagonistic potency (KB value) of the test compound was determined from the degree of shift of the dose-responsecurve attributable to the treatment with individual test compound of the present invention. The results were as shown in Tables 2-1 and 2-2. • 2) Test for Antagonism to the Airway M3 Receptor in Isolated Rat Trachea

For experiment [2], the target named is T2, muscarinic M3 receptor (Rattus norvegicus, UniProt P08483).
T2 construct: from tissue; host or cells: whole animal, male SD rats (in vivo)
Kind of experiment: Antagonism to muscarinic M3 receptor in vivo: acetylcholine-induced airway resistance-increasing reaction in rats. Particulars: rat, iv, rats, acetylcholine (50 μg/kg) 5 minutes after test compound; read-out: ED50 Airway constriction M3. The protocol:
(§1) Male SD strain rats (weighing 300-500 g) were anesthetized with urethane (1 g/kg) and α-chloralose (50 mg/kg) administered intraperitoneally. The airway and carotid artery of each rat were isolated by laryngotomy and cannulated. The carotid artery cannula was used as the test compound administration route. After suppressing spontaneous respiration by hypodermic administration of succinylcholine (5 mg/body), the rats were transferred into Plethysmograph-box (PLYAN, Buxco) and artificially ventilated under the conditions of ventilation rate of 6 ml/kg per breath and respiration rate of 90 breaths/min., using a pulmotor for small animals (Model 681, Harvard Co.). Measurements of air rate and […], calculation of airway resistance and lung compliance and their recording were conducted with lung function analyzer (Model 6, Buxco). After about 10 minutes' stabilization period, the change in airway resistance induced by intravenous administration of acetylcholine (50 μg/kg) was measured twice at 5 minutes' interval. The change in airway resistance induced by the second acetylcholine administration was recorded as the pre-administration of the tested rat (pre-value). Five (5) minutes afterthe second acetylcholine-induced reaction measurement, the test compound or isotonic sodium chloride solution was intravenously administered. Five (5) minutes thereafter, acetylcholine was administered and whereby induced airway resistance change was measured. In this experiment, one-dosage evaluation was conducted per one animal of the tested rats. The changes in acetylcholine-induced airway resistance-increasing reaction (% of pre-value) caused by the tested compound and isotonic sodium chloride solution were calculated by the following Equation 1: […]
(§2) The inhibitory effect (inhibition ratio) of each test compound on the acetylcholine-induced airway resistance-increasing reaction was determined according to the following Equation 2.
(§3) Fifty (50)% inhibition dose (ED50; μg/kg) was calculated from the inhibition ratio of each dose of the tested compound.

Experiment [3] deals with muscarinic M3 receptor. The experiment is described as above. Also on record: species or system rat. Particulars: for Selectivity M1/M3 (in vivo): ratio of ED50 M1 to ED50 M3, rats i.v.; for Selectivity M2/M3 (in vivo): ratio of ED50 M2 to ED50 M3, rats i.v. The protocol: as §1, §2, §3
Experiment [4] has as its target T3, human m2 muscarinic acetylcholine receptor expressed in CHO cells (Homo sapiens, UniProt P08172).
T3 construct: purchased Receptor Biology, Inc; host or cells: CHO cells
T3 sequence (P08172 1-466): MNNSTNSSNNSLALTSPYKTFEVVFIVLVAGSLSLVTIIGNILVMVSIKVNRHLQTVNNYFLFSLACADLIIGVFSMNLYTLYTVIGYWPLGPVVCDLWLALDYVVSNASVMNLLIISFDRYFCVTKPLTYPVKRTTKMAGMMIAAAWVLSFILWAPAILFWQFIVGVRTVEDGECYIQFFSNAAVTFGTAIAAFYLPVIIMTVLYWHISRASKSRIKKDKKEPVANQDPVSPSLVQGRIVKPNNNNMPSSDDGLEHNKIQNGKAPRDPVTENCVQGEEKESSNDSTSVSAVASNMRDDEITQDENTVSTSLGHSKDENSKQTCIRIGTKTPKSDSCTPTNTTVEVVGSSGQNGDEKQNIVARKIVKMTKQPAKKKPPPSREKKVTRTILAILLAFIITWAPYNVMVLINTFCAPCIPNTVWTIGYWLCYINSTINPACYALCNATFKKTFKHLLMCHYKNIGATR
Kind of experiment: Inhibition of [3H]-N-methylscopolamine binding to muscarinic m2 receptor. To be noted: 0.2 nM [3H]-N-methylscopolamine. Here is the method:
These tests were performed according to a modification of the method of Hargreaves, et al. (Br. J. Pharmacol. 107: 494-501, 1992). Namely, muscarinic acetylcholine receptors of human m1, m2, m3, m4 and m5 expressed in CHO cells (Receptor Biology, Inc.) were incubated with 0.2 nM [^3H]-N-methylscopolamine (82Ci/mmol, New England Nuclear, Inc.) and a test compound to be tested in 0.5 ml of 50 mM Tris-HCl, 10 mM MgCl2, 1 mM EDTA solution (pH 7.4) for 120 minutes at room temperature (about 20-25° C.), followed by suction filtration over a glass filter (UniFilter plate-GF/C; Packard). Then the filter was washed four times with 1 ml of ice-cold Tris-HCl buffer and dried at 50° C. for an hour. After adding a scintillator (Microscinti 0; Packard), the radioactivity of [^3H]-N-methylscopolamine binding to the filter was counted with a microplate scintillation counter (TopCount™; Packard). Non-specific receptor binding of [^3H]-N-methylscopolamine was measured by adding 1 μM N-methylscopolamine.

T2 sequence (P08483 whole entry): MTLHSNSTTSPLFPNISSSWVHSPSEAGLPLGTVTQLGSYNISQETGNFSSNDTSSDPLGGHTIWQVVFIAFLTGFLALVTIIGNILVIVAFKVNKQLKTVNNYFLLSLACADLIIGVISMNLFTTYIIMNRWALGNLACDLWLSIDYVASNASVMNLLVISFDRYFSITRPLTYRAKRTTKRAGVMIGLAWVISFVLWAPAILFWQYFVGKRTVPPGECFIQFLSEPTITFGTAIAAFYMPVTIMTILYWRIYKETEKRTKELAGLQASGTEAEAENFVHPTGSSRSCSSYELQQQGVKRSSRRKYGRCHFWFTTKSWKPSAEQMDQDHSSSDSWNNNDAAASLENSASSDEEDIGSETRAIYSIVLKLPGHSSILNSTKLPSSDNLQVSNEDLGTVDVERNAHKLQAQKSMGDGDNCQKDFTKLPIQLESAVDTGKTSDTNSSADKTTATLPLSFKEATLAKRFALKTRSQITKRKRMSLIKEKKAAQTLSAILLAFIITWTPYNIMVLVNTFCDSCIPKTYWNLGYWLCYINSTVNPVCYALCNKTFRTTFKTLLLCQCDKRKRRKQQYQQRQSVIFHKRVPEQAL

For `O=C(CCNC(=O)CNC(=O)CC(c1ccccc1)(c1ccccc1)c1ccccc1)NC[C@H]1CCCN(CC2CCCCC2)C1` [Example 12, N-{2-(3-{((3R)-1-cyclohexylmethyl-3-piperidyl)methyl}amino-3-oxopropyl)amino-2-oxoethyl}-3,3,3-triphenyloropanamide], the antagonist equilibrium constant (Kb) in experiment [1] was determined as 160 nM. In addition, the ED50 on muscarinic M3 receptor [2] came to 15 µg/kg. Further, in the experiment on muscarinic M3 receptor [3], the “Selectivity M1/M3 (in vivo)” value is given as over 200 times and the “Selectivity M2/M3 (in vivo)” value came to 100 times. In experiment [4], this molecule gave a Ki of 34 nM.
Consider `CC[N+]1(CC)CCC[C@H](CNC(=O)[C@H]2CCCN2C(=O)[C@@H]2C[C@@H](O)CN2C(=O)CC(c2ccccc2)(c2ccccc2)c2ccccc2)C1.[Cl-]` [Example 133, (3R)-1,1-diethyl-3-({({(2R)-1-({(2S,4R)-4-hydroxy-1-(3,3,3-triphenylpropanoyl)-2-pyrrolidinyl}carbonyl)-2-pyrrolidinyl}carbonyl)amino}methyl)piperidinium chloride], for which, in experiment [1], the Kb is 41 nM. For the same molecule, the ED50 on muscarinic M3 receptor [2] is 2.1 µg/kg. Further, in the experiment with muscarinic M3 receptor [3], the “Selectivity M1/M3 (in vivo)” value is listed as over 143 times and the “Selectivity M2/M3 (in vivo)” value came to 54 times. For the same molecule, the affinity in experiment [4], expressed as Ki, was 810 nM.

By Kb is commonly meant the equilibrium dissociation constant of an antagonist, usually derived from a functional assay. The term ED50 denotes the midpoint of the dose-response relation. A word on the Ki: it is the equilibrium dissociation constant of an inhibitor or competing ligand from its target. Read a high Ki as a looser hold on the target.
